Data as given in patent publication US12110295B2, “WD40 repeat domain protein 5 (WDR5) degradation/disruption compounds and methods of use” (Icahn School of Medicine at Mount Sinai, priority 2018, dated 2024).

Biological target: WDR5 (Homo sapiens, UniProt P61964)
Assay: Screening of putative WDR5 degraders by Western blot in MV4;11 and/or MIAPACA2 cells
Assay type: cell-based
Set-up: After WDR5 degrader treatment, cells were collected and lysed; endogenous in cells; host or cells: MV4;11 and/or MIAPACA2
Details: summary of screening, FIGS. 6-10
Method: MV4;11 cells were treated with DMSO or indicated compounds at 0.1 μM and 0.5 μM for 18 hours. […]. MIAPACA2 cells were treated with DMSO or indicated compounds at 0.5 μM and 1.0 μM for 18 hours.
MIAPACA2 cells were treated with DMSO or indicated compounds at 0.1 μM and 0.5 μM for 18 hours.
MIAPACA2 cells were treated with DMSO or indicated compounds at 0.5 μM and 1.0 μM or at 1.0 μM and 10 μM for 18 hours.
MV4;11 cells were treated with DMSO or indicated compounds at 0.1 μM and 1.0 μM for 18 hours.
WDR5 degraders were dissolved in DMSO and DMSO with no degraders was used as the control. 1×10^6 MV4;11 cells or 1×10^5 MIAPACA2 or 2×10^5 Hela cells were seeded in 2 mL medium for each well in […].
For prescreening of all the compounds, each test compound was added to the medium at indicated concentrations. After 18 h treatment, cells were collected.
After WDR5 degrader treatment, cells were collected and lysed. Total cell lysates were used for western blot. The following primary antibodies were used: WDR5 (Santa Cruz), vinculin (Cell Signaling Technology), tubulin (Cell Signaling Technology), GAPDH (Santa Cruz). Blots were imaged using fluorescence-labeled secondary antibodies on ChemiDoc™ Imaging Systems.

| SMILES | effective degradation of WDR5 in MV4;11 and/or MIAPACA2 cells |
| --- | --- |
| Cc1ncsc1-c1ccc(CNC(=O)[C@@H]2C[C@@H](O)CN2C(=O)[C@@H](NC(=O)CCCCCCCCCC(=O)N2CC=C(c3cc(NC(=O)c4c[nH]c(=O)cc4C(F)(F)F)c(N4C[C@@H](C)N(C)[C@@H](C)C4)cc3F)CC2)C(C)(C)C)cc1 [XF078-46, N-(4-fluoro-5-(1-(11-(((S)-1-((2S,4R)-4-hydroxy-2-((4-(4-methylthiazol-5-yl)benzyl)carbamoyl)pyrrolidin-1-yl)-3,3-dimethyl-1-oxobutan-2-yl)amino)-11-oxoundecanoyl)-1,2,3,6-tetrahydropyridin-4-yl)-2-((3S,5R)-3,4,5-trimethylpiperazin-1-yl)phenyl)-6-oxo-4-(trifluoromethyl)-1,6-dihydropyridine-3-carboxamide] | able to effectively degrade WDR5 |
| Cc1ncsc1-c1ccc(CNC(=O)[C@@H]2C[C@@H](O)CN2C(=O)[C@@H](NC(=O)CCCCCCCCCCCCC(=O)NCCN2CCN(Cc3cccc(-c4ccc(N5CCN(C)CC5)c(NC(=O)c5c[nH]c(=O)cc5C(F)(F)F)c4)c3)CC2)C(C)(C)C)cc1 [XF050-162, N^1-((S)-1-((2S,4R)-4-hydroxy-2-((4-(4-methylthiazol-5-yl)benzyl)carbamoyl)pyrrolidin-1-yl)-3,3-dimethyl-1-oxobutan-2-yl)-N^14-(2-(4-((4′-(4-methylpiperazin-1-yl)-3′-(6-oxo-4-(trifluoromethyl)-1,6-dihydropyridine-3-carboxamido)-[1,1′-biphenyl]-3-yl)methyl)piperazin-1-yl)ethyl)tetradecanediamide] | able to effectively degrade WDR5 |
| Cc1ncsc1-c1ccc(CNC(=O)[C@@H]2C[C@@H](O)CN2C(=O)[C@@H](NC(=O)CCOCCOCCOCCOCCC(=O)N2CCN(c3ncc(-c4cc(NC(=O)c5ccc(F)cc5C(F)(F)F)c(N5C[C@@H](C)N(C)[C@@H](C)C5)cc4F)cn3)CC2)C(C)(C)C)cc1 [XF078-105, (2S,4R)-1-((S)-2-(tert-butyl)-19-(4-(5-(2-fluoro-5-(4-fluoro-2-(trifluoromethyl)benzamido)-4-((3S,5R)-3,4,5-trimethylpiperazin-1-yl)phenyl)pyrimidin-2-yl)piperazin-1-yl)-4,19-dioxo-7,10,13,16-tetraoxa-3-azanonadecanoyl)-4-hydroxy-N-(4-(4-methylthiazol-5-yl)benzyl)pyrrolidine-2-carboxamide] | able to effectively degrade WDR5 |
| Cc1ncsc1-c1ccc(CNC(=O)[C@@H]2C[C@@H](O)CN2C(=O)[C@@H](NC(=O)CCCCC(=O)N2CC=C(c3cc(NC(=O)c4c[nH]c(=O)cc4C(F)(F)F)c(N4C[C@@H](C)N(C)[C@@H](C)C4)cc3F)CC2)C(C)(C)C)cc1 [XF078-41, N-(4-fluoro-5-(1-(6-(((S)-1-((2S,4R)-4-hydroxy-2-((4-(4-methylthiazol-5-yl)benzyl)carbamoyl)pyrrolidin-1-yl)-3,3-dimethyl-1-oxobutan-2-yl)amino)-6-oxohexanoyl)-1,2,3,6-tetrahydropyridin-4-yl)-2-((3S,5R)-3,4,5-trimethylpiperazin-1-yl)phenyl)-6-oxo-4-(trifluoromethyl)-1,6-dihydropyridine-3-carboxamide] | able to effectively degrade WDR5 |
| Cc1ncsc1-c1ccc(CNC(=O)[C@@H]2C[C@@H](O)CN2C(=O)[C@@H](NC(=O)CCCCCCCC(=O)NCCN2CCN(Cc3ccc(F)c(-c4ccc(N5C[C@@H](C)N(C)[C@@H](C)C5)c(NC(=O)c5c[nH]c(=O)cc5C(F)(F)F)c4)c3)CC2)C(C)(C)C)cc1 [XF078-15, N^1-(2-(4-((6-fluoro-3′-(6-oxo-4-(trifluoromethyl)-1,6-dihydropyridine-3-carboxamido)-4′-((3S,5R)-3,4,5-trimethylpiperazin-1-yl)-[1,1′-biphenyl]-3-yl)methyl)piperazin-1-yl)ethyl)-N^9-((S)-1-((2S,4R)-4-hydroxy-2-((4-(4-methylthiazol-5-yl)benzyl)carbamoyl)pyrrolidin-1-yl)-3,3-dimethyl-1-oxobutan-2-yl)nonanediamide] | able to effectively degrade WDR5 |
| Cc1ncsc1-c1ccc(CNC(=O)[C@@H]2C[C@@H](O)CN2C(=O)[C@@H](NC(=O)CCCCCC(=O)NCCN2CCN(Cc3ccc(F)c(-c4ccc(N5C[C@@H](C)N(C)[C@@H](C)C5)c(NC(=O)c5c[nH]c(=O)cc5C(F)(F)F)c4)c3)CC2)C(C)(C)C)cc1 [XF078-13, N^1-(2-(4-((6-fluoro-3′-(6-oxo-4-(trifluoromethyl)-1,6-dihydropyridine-3-carboxamido)-4′-((3S,5R)-3,4,5-trimethylpiperazin-1-yl)-[1,1′-biphenyl]-3-yl)methyl)piperazin-1-yl)ethyl)-N^7-((S)-1-((2S,4R)-4-hydroxy-2-((4-(4-methylthiazol-5-yl)benzyl)carbamoyl)pyrrolidin-1-yl)-3,3-dimethyl-1-oxobutan-2-yl)heptanediamide] | able to effectively degrade WDR5 |
| Cc1ncsc1-c1ccc(CNC(=O)[C@@H]2C[C@@H](O)CN2C(=O)[C@@H](NC(=O)COCCOCC(=O)N2CCN(Cc3cnc(N4CC=C(c5cc(NC(=O)c6c[nH]c(=O)cc6C(F)(F)F)c(N6C[C@@H](C)N(C)[C@@H](C)C6)cc5F)CC4)nc3)CC2)C(C)(C)C)cc1 [XF078-134, N-(4-fluoro-5-(1-(5-((4-(2-(2-(2-(((S)-1-((2S,4R)-4-hydroxy-2-((4-(4-methylthiazol-5-yl)benzyl)carbamoyl)pyrrolidin-1-yl)-3,3-dimethyl-1-oxobutan-2-yl)amino)-2-oxoethoxy)ethoxy)acetyl)piperazin-1-yl)methyl)pyrimidin-2-yl)-1,2,3,6-tetrahydropyridin-4-yl)-2-((3S,5R)-3,4,5-trimethylpiperazin-1-yl)phenyl)-6-oxo-4-(trifluoromethyl)-1,6-dihydropyridine-3-carboxamide] | able to effectively degrade WDR5 |
| Cc1ncsc1-c1ccc(CNC(=O)[C@@H]2C[C@@H](O)CN2C(=O)[C@@H](NC(=O)CCCCC(=O)N2CCN(c3ncc(-c4cc(NC(=O)c5ccc(F)cc5C(F)(F)F)c(N5C[C@@H](C)N(C)[C@@H](C)C5)cc4F)cn3)CC2)C(C)(C)C)cc1 [XF078-110, (2S,4R)-1-((S)-2-(6-(4-(5-(2-fluoro-5-(4-fluoro-2-(trifluoromethyl)benzamido)-4-((3S,5R)-3,4,5-trimethylpiperazin-1-yl)phenyl)pyrimidin-2-yl)piperazin-1-yl)-6-oxohexanamido)-3,3-dimethylbutanoyl)-4-hydroxy-N-(4-(4-methylthiazol-5-yl)benzyl)pyrrolidine-2-carboxamide] | able to effectively degrade WDR5 |
| Cc1ncsc1-c1ccc(CNC(=O)[C@@H]2C[C@@H](O)CN2C(=O)[C@@H](NC(=O)CCCCCCCCC(=O)N2CC=C(c3cc(NC(=O)c4c[nH]c(=O)cc4C(F)(F)F)c(N4C[C@@H](C)N(C)[C@@H](C)C4)cc3F)CC2)C(C)(C)C)cc1 [XF078-45, N-(4-fluoro-5-(1-(10-(((S)-1-((2S,4R)-4-hydroxy-2-((4-(4-methylthiazol-5-yl)benzyl)carbamoyl)pyrrolidin-1-yl)-3,3-dimethyl-1-oxobutan-2-yl)amino)-10-oxodecanoyl)-1,2,3,6-tetrahydropyridin-4-yl)-2-((3S,5R)-3,4,5-trimethylpiperazin-1-yl)phenyl)-6-oxo-4-(trifluoromethyl)-1,6-dihydropyridine-3-carboxamide] | able to effectively degrade WDR5 |
| Cc1ncsc1-c1ccc(CNC(=O)[C@@H]2C[C@@H](O)CN2C(=O)[C@@H](NC(=O)CCCCCCCCCC(=O)N2CCN(c3ccc(-c4cc(NC(=O)c5c[nH]c(=O)cc5C(F)(F)F)c(N5C[C@@H](C)N(C)[C@@H](C)C5)cc4F)cn3)CC2)C(C)(C)C)cc1 [XF067-133, N-(4-fluoro-5-(6-(4-(11-(((S)-1-((2S,4R)-4-hydroxy-2-((4-(4-methylthiazol-5-yl)benzyl)carbamoyl)pyrrolidin-1-yl)-3,3-dimethyl-1-oxobutan-2-yl)amino)-11-oxoundecanoyl)piperazin-1-yl)pyridin-3-yl)-2-((3S,5R)-3,4,5-trimethylpiperazin-1-yl)phenyl)-6-oxo-4-(trifluoromethyl)-1,6-dihydropyridine-3-carboxamide] | able to effectively degrade WDR5 |
| Cc1ncsc1-c1ccc(CNC(=O)[C@@H]2C[C@@H](O)CN2C(=O)[C@@H](NC(=O)CCOCCOCCC(=O)N2CCN(Cc3cnc(N4CC=C(c5cc(NC(=O)c6c[nH]c(=O)cc6C(F)(F)F)c(N6C[C@@H](C)N(C)[C@@H](C)C6)cc5F)CC4)nc3)CC2)C(C)(C)C)cc1 [XF078-135, N-(4-fluoro-5-(1-(5-((4-(3-(2-(3-(((S)-1-((2S,4R)-4-hydroxy-2-((4-(4-methylthiazol-5-yl)benzyl)carbamoyl)pyrrolidin-1-yl)-3,3-dimethyl-1-oxobutan-2-yl)amino)-3-oxopropoxy)ethoxy)propanoyl)piperazin-1-yl)methyl)pyrimidin-2-yl)-1,2,3,6-tetrahydropyridin-4-yl)-2-((3S,5R)-3,4,5-trimethylpiperazin-1-yl)phenyl)-6-oxo-4-(trifluoromethyl)-1,6-dihydropyridine-3-carboxamide] | able to effectively degrade WDR5 |
